System: 8×TBD luciferase reporter (YAP) in HEK293T cells
Test: YAP Reporter Assay (8×TBD firefly luciferase reporter)
Type: cell-based
Conditions: Homo sapiens, HEK-293T; HEK293T cells stably transfected with 8×TBD luciferase reporter and pRLTK; 24-hr incubation; firefly luciferase activity; read-out: Firefly Luciferase IC50
Protocol: HEK293T cells stably transfected with 8×TBD luciferase reporter and pRLTK in 384-well plates were treated with the test compounds, starting from 3 μM (final concentration in assay plate), 1:3 dilution, and 10 points in quadruplicates. Post 24-hr incubation with compounds at 37° C. and 5% CO2, cells were lysed and 8×TBD-driven firefly luciferase and control TK-driven renilla luciferase activities were measured using Promega Dual-Luciferase Reporter Assay System.
Reagents: The reagents used for this study are: DMEM: Invitrogen #11960077, Dual-Glo Luciferase Assay System: Promega-E2980, Puromycin Dihydrochloride: Invitrogen-A1113803, 384-well plate: PerkinElmer-6007480, L-GLUTAMINE: Invitrogen-25030164, Hygromycin B: Invitrogen-10687010, and Penicillin-Streptomycin: Merk-TMS-AB2-C
Media: The media used for this assay were: Culture Medium: DMEM+1 ug/mL puromycin+200 ug/mL hygromycin (with 10% FBS+1 mM L-glutamine); and Assay Medium: DMEM (with 10% FBS+1 mM L-glutamine+1×P/S).
Cell Plating: The appropriate media was warmed at 37° C. by water bath: Culture Medium, Assay Medium, 1*D-PBS, 0.05% trypsin-EDTA. The cells were trypsinized after removing all media, then washed with 1*sterile D-PBS and then with 2 ml 0.05% trypsin-EDTA. The cells were then incubated at RT for one minute. Then 10 ml/75 cm2 flask Assay Medium was added to each flask. Using a 10 ml pipette, the cells were then gently resuspended in the media, until the clumps completely disappeared. The cells were then transferred into 50 ml centrifuge tubes and were centrifuged at 800 rpm for 5 mins. The medium was removed and the cells were resuspended with Assay Medium. An aliquot of cells was used to count the cell density (cells/ml). The cell suspension was then diluted with Assay Medium to a concentration of 6×10^4 cells/ml. 50 ul cells suspension was then plated to 384-well plate (PerkinElmer-6007480), 3×10^3 cells/well and the cells were incubated in an incubator at 37° C., 5% CO2.
Compound Treatment: In the afternoon (incubation of the plate with 3-4 hrs), the test compounds were added by Echo, starting from 3 uM (final concentration in the assay plate), 1:3 dilution, 10 points, quadruplicates. The plate was placed at 37° C., 5% CO2 incubator for 24 hrs.
Detection: The Dual-Glo Luciferase Reagent was prepared by transferring the contents of one bottle of Dual-Glo Luciferase Buffer to one bottle of Dual-Glo Luciferase Substrate to create the Dual-Glo Luciferase Reagent. Mixing was performed by inversion until the substrate was thoroughly dissolved. After mixing, the reagent was aliquoted into 15 ml tubes. In the afternoon (24 hrs post compound treatment), the DMEM+medium in the 384 well plates were aspirated by Microplate Washer.
Measuring firefly luciferase activity: 20 ul Dual-Glo Luciferase Reagent was added to the 384-well plates. The plates were protected from light to prevent interference with the assay. The plates were shaken for 1 min followed centrifuging plates at 1000 rpm for 30 seconds. After waiting at least 10 minutes, the firefly luminescence was measured by Envision.
Measuring renilla luciferase activity: 20 ul Stop-Glo Reagent was added to the 384-well plates. The plates were shaken for 1 min and then centrifuged at 1000 rpm for 30 seconds. After waiting at least 10 minutes, the renilla luminescence was measured by Envision.
Compound IC50 and maximum inhibition on the firefly luciferase and renilla luciferase activities were reported separately.

Q: `CC#C[C@H](C)NC(=O)c1ccc2c(Oc3ccc(C(F)(F)F)cc3)cccc2c1` [Compound 89, N-[(1S)-1-methylbut-2-ynyl]-5-[4-(trifluoromethyl)phenoxy]naphthalene-2-carboxamide] was tested. Which IC50 did it give?
A: < 0.1 µM

Q: How did the IC50 turn out when `CCNCC[C@@H](C)NC(=O)c1ccc2c(Oc3ccc(C(F)(F)F)cc3)cccc2c1` [Compound 146, (R)-N-(4-(ethylamino)butan-2-yl)-5-(4-(trifluoromethyl)phenoxy)-2-naphthamide] was run?
A: < 0.1 µM

Q: For `CCN1CCC([C@@H](C)NC(=O)c2ccc3c(Oc4ccc(C(F)(F)F)cc4)cccc3c2)CC1` [Compound 155, (R)-N-(1-(1-ethylpiperidin-4-yl)ethyl)-5-(4-(trifluoromethyl)phenoxy)-2-naphthamide], which IC50 is on record?
A: 0.1 to 1 µM

Q: Which IC50 does the source give for `C[C@H](CO)NC(=O)c1cnc2c(Oc3ccc(C(F)(F)F)cc3)cc(F)c(F)c2c1` [Compound 102, (R)-5,6-difluoro-N-(1-hydroxypropan-2-yl)-8-(4-(trifluoromethyl)phenoxy)quinoline-3-carboxamide] here?
A: < 0.1 µM

Q: `C[C@H](NC(=O)c1ccc2c(Oc3ccc(C(F)(F)F)cc3)cccc2c1)C1COC1` [Compound 41, (S)—N-(1-(oxetan-3-yl)ethyl)-5-(4-(trifluoromethyl)phenoxy)-2-naphthamide] was tested. Which IC50 did it give?
A: < 0.1 µM

Q: Which IC50 does the source give for `C#C[C@@H](C)NC(=O)c1ccc2c(Oc3ccc(C(F)(F)F)cc3)cccc2c1` [Compound 61, (R)—N-(but-3-yn-2-yl)-5-(4-(trifluoromethyl)phenoxy)-2-naphthamide] here?
A: < 0.1 µM

Q: Which IC50 does the source give for `CCN1CC([C@@H](C)NC(=O)c2ccc3c(Oc4ccc(C(F)(F)F)cc4)cccc3c2)C1` [Compound 131, (R)—N-(1-(1-ethylazetidin-3-yl)ethyl)-5-(4-(trifluoromethyl)phenoxy)-2-naphthamide] here?
A: 0.1 to 1 µM

Q: For `COc1cc(Oc2ccc(C(F)(F)F)cc2)c2ncc(C(=O)N[C@@H](C)c3ccccn3)cc2c1` [Compound 43, (S)-6-methoxy-N-(1-(pyridin-2-yl)ethyl)-8-(4-(trifluoromethyl)phenoxy)quinoline-3-carboxamide], which IC50 is on record?
A: < 0.1 µM

Q: `C[C@@H](NC(=O)c1ccc2c(Oc3ccc(C(F)(F)F)cc3)cccc2c1)c1cccc(N(C)C)n1` [Compound 77, (R)—N-(1-(6-(dimethylamino)pyridin-2-yl)ethyl)-5-(4-(trifluoromethyl)phenoxy)-2-naphthamide] was tested. Which IC50 did it give?
A: < 0.1 µM

Q: How did the IC50 turn out when `O=C(NC(CCO)CCO)c1ccc2c(Oc3ccc(C(F)(F)F)cc3)cccc2c1` [Compound 121, N-(1,5-dihydroxypentan-3-yl)-5-(4-(trifluoromethyl)phenoxy)-2-naphthamide] was run?
A: < 0.1 µM

Q: `C[C@@H](NC(=O)c1ccc2c(Oc3ccc(C(F)(F)F)cc3)cccc2c1)c1cc(N)ccn1` [Compound 72, (R)—N-(1-(4-aminopyridin-2-yl)ethyl)-5-(4-(trifluoromethyl)phenoxy)-2-naphthamide] was tested. Which IC50 did it give?
A: < 0.1 µM

Q: How did the IC50 turn out when `C[C@H](NC(=O)c1ccc2c(Oc3ccc(C(F)(F)F)cc3)cccc2c1)C1CN(CCF)C1` [Compound 129, (S)—N-(1-(1-(2-fluoroethyl)azetidin-3-yl)ethyl)-5-(4-(trifluoromethyl)phenoxy)-2-naphthamide] was run?
A: 1 to 3 µM

Q: Which IC50 does the source give for `C[C@@H](NC(=O)c1ccc2c(Oc3ccc(C(F)(F)F)cc3)cccc2c1)c1nnnn1C` [Compound 56, (R)—N-(1-(1-methyl-1H-tetrazol-5-yl)ethyl)-5-(4-(trifluoromethyl)phenoxy)-2-naphthamide] here?
A: 0.1 to 1 µM

Q: `C[C@H](NC(=O)c1ccc2c(Oc3ccc(C(F)(F)F)cc3)cccc2c1)C1CNC1` [Compound 95, N-[(1S)-1-(azetidin-3-yl)ethyl]-5-[4-(trifluoromethyl)phenoxy]naphthalene-2-carboxamide] was tested. Which IC50 did it give?
A: < 0.1 µM

Q: For `COC[C@H](C)NC(=O)c1ccc2c(Oc3ccc(C(F)(F)F)cc3)cccc2c1` [Compound 28, (S)—N-(1-methoxypropan-2-yl)-5-(4-(trifluoromethyl)phenoxy)-2-naphthamide], which IC50 is on record?
A: < 0.1 µM

Q: `C[C@@H](CCN)NC(=O)c1ccc2c(Oc3ccc(C(F)(F)F)cc3)cccc2c1` [Compound 111, (S)—N-(4-aminobutan-2-yl)-5-(4-(trifluoromethyl)phenoxy)-2-naphthamide] was tested. Which IC50 did it give?
A: < 0.1 µM

Q: How did the IC50 turn out when `C[C@H](CO)NC(=O)c1cc2cccc(Oc3ccc(C(F)(F)F)cc3)c2s1` [Compound 33, (R)—N-(1-hydroxypropan-2-yl)-7-(4-(trifluoromethyl)phenoxy)benzo[b]thiophene-2-carboxamide] was run?
A: < 0.1 µM

Q: For `CC(C)NC(=O)c1ccc2c(Oc3ccc(C(F)(F)F)cc3)cccc2c1` [Compound 4, N-isopropyl-5-(4-(trifluoromethyl)phenoxy)-2-naphthamide], which IC50 is on record?
A: < 0.1 µM

Q: `C[C@@H](NC(=O)c1ccc2c(Oc3ccc(C(F)(F)F)cc3)cccc2c1)C1CN(C)C1` [Compound 126, (R)—N-(1-(1-methylazetidin-3-yl)ethyl)-5-(4-(trifluoromethyl)phenoxy)-2-naphthamide] was tested. Which IC50 did it give?
A: 0.1 to 1 µM

Q: For `COC[C@@H](C)NC(=O)c1cnc2c(Oc3ccc(C(F)(F)F)cc3)cc(OC)cc2c1` [Compound 44, (R)-6-methoxy-N-(1-methoxypropan-2-yl)-8-(4-(trifluoromethyl)phenoxy)quinoline-3-carboxamide], which IC50 is on record?
A: < 0.1 µM

Q: For `C[C@@H](CCO)NC(=O)c1ccc2c(Oc3ccc(C(F)(F)F)cc3)cccc2c1` [Compound 115, (S)—N-(4-hydroxybutan-2-yl)-5-(4-(trifluoromethyl)phenoxy)-2-naphthamide], which IC50 is on record?
A: < 0.1 µM

Q: How did the IC50 turn out when `CNCCNC(=O)c1ccc2c(Oc3ccc(C(F)(F)F)cc3)cccc2c1` [Compound 30, N-(2-(methylamino)ethyl)-5-(4-(trifluoromethyl)phenoxy)-2-naphthamide] was run?
A: 0.1 to 1 µM

Q: Which IC50 does the source give for `C[C@@H](NC(=O)c1ccc2c(Oc3ccc(C(F)(F)F)cc3)cccc2c1)c1c[nH]cn1` [Compound 48, (R)—N-(1-(1H-imidazol-4-yl)ethyl)-5-(4-(trifluoromethyl)phenoxy)-2-naphthamide] here?
A: < 0.1 µM

Q: `C[C@H](NC(=O)c1ccc2c(Oc3ccc(C(F)(F)F)cc3)cccc2c1)c1cnccn1` [Compound 47, (S)—N-(1-(pyrazin-2-yl)ethyl)-5-(4-(trifluoromethyl)phenoxy)-2-naphthamide] was tested. Which IC50 did it give?
A: 0.1 to 1 µM

Q: With `C[C@H](NC(=O)c1ccc2c(Oc3ccc(C(F)(F)F)cc3)cccc2c1)C(N)=O` [Compound 50, (S)—N-(1-amino-1-oxopropan-2-yl)-5-(4-(trifluoromethyl)phenoxy)-2-naphthamide] as the molecule, how does the IC50 read?
A: < 0.1 µM

Q: For `CS(=O)(=O)NC(=O)c1ccc2c(Oc3ccc(F)c(F)c3)cccc2c1` [Compound 10, 5-(3,4-difluorophenoxy)-N-(methylsulfonyl)-2-naphthamide], which IC50 is on record?
A: < 0.1 µM

Q: `CC(C)NC(=O)c1cnc2c(Oc3ccc(C(F)(F)F)cc3)cc(F)c(F)c2c1` [Compound 81, 5,6-difluoro-N-isopropyl-8-(4-(trifluoromethyl)phenoxy)quinoline-3-carboxamide] was tested. Which IC50 did it give?
A: < 0.1 µM

Q: `COC[C@H](C)NC(=O)c1cnc2c(Oc3ccc(C(F)(F)F)cc3)cc(OC)cc2c1` [Compound 45, (S)-6-methoxy-N-(1-methoxypropan-2-yl)-8-(4-(trifluoromethyl)phenoxy)quinoline-3-carboxamide] was tested. Which IC50 did it give?
A: < 0.1 µM

Q: How did the IC50 turn out when `C[C@@H](NC(=O)c1ccc2c(Oc3ccc(C(F)(F)F)cc3)cccc2c1)c1cccc(N)n1` [Compound 66, (R)—N-(1-(6-aminopyridin-2-yl)ethyl)-5-(4-(trifluoromethyl)phenoxy)-2-naphthamide] was run?
A: < 0.1 µM

Q: Which IC50 does the source give for `CS(=O)(=O)NC(=O)c1ccc2c(Oc3ccc(Cl)c(Cl)c3)cccc2c1` [Compound 6, 5-(3,4-dichlorophenoxy)-N-(methylsulfonyl)-2-naphthamide] here?
A: < 0.1 µM

Q: For `C[C@H](CO)NC(=O)c1cnc2c(Oc3ccc(C(F)(F)F)cc3)cccc2c1` [Compound 15, N-[(1R)-2-hydroxy-1-methyl-ethyl]-8-[4-(trifluoromethyl)phenoxy]quinoline-3-carboxamide], which IC50 is on record?
A: < 0.1 µM
